US20230295213A1, “CD73 INHIBITORS AND PHARMACEUTICAL USES THEREOF” (RISEN (SUZHOU) PHARMA TECH CO., LTD., priority 2018, published 2023)

What was measured:
CD73 = CD73 (Homo sapiens (Human), UniProt P21589); assay: CD73 enzyme inhibition assay (Malachite Green Phosphate Detection Kit); format: biochemical; details: for inhibitory activity in the CD73 enzyme assay: qualitative statement
Experimental: To evaluate the inhibitory effect of selected compounds on CD73, Malachite Green Phosphate Detection Kit (R&D, Cat #DY996) was used. Briefly, compounds were dissolved and diluted to the desired concentration using phosphate-free buffer (Tris-HCl, pH 7.3). 25 μL of the compound solution was added to an equal volume of CD73 protein solution (2× concentration, 0.5 μg/mL, Novoprotein, Cat #C446), followed by a 5-minute incubation at room temperature. 10 μL of Malachite Green Reagent A was added to each well, mixed thoroughly and incubated for 10 minutes at room temperature. 10 μL of Malachite Green Reagent B was then added to each well, mixed thoroughly and incubated for 20 minutes at room temperature. Finally, the optical density of each well was determined using a microplate reader set to 620 nm.

[1] = Pharmacokinetic evaluation in ICR mice, intravenous; format: in vivo; details: mouse; ICR male mice, 1.0 mg/kg intravenous, plasma
Experimental: A test compound (1.0 mg/kg) was administered to fasted ICR male mice via intravenous injection, and blood samples were collected at time points of 0.08, 0.25, 0.5, 1, 2, 4, 6, 8 and 24 h after the administration. Plasma sample was separated by centrifugation (8000 rpm) and stored at −80° C. until the sample was analyzed. Concentrations of the test compound in the plasma were determined by HPLC-MS/MS: the plasma was dispensed into appropriate tubes containing internal standard and methanol or acetonitrile. The tubes were mixed vigorously for 3 minutes to achieve deproteinization and then centrifuged at 8000 rpm for 5 minutes. The supernatant was transferred to an autosampler vial, injected into the chromatographic system, and quantified on MS/MS detector. Pharmacokinetic parameters including AUC0-t, Cmax, Tmax, t1/2, MRT, Cl and Vd were calculated using WinNonlin 6.3 software. Table 3 summarizes key PK parameters for test compounds (AUC(0-t): the area under the curve from time 0 to time t; AUC(0-∞): the area under the curve from time 0 to infinity; t1/2: Half-life; CL: clearance; C0: the concentration of drug in blood if the drug molecules enter the circulation and are distributed immediately (i.e., at time 0)).

[2] = target: Recombinant human 5′-nucleotidase (hCD73) (Homo sapiens (Human), UniProt P21589); assay: CD73 enzyme inhibition assay (hCD73, AMP substrate, PiColorLock Gold phosphate detection); format: biochemical; details: hCD73 1 nM solution, AMP 60 μM solution, 37° C. 20 min, absorbance 635 nm
Experimental: Test compound solution preparation: Stock solution of a test compound was prepared in DMSO at 10 mM concentration. A series of preset 10-concentration solutions of a test compound were prepared by diluting the stock solution in 5-fold gradient dilution with DMSO.
Assay buffer (lx): 20 mm Tris, 25 mM NaCl, 1 mM MgCl2, pH 7.5, 0.005% Tween-20 (freshly prepared, and ready for use).
An aliquot of 0.25 μL of compound solution or DMSO (blank control) was added to each test well of a micro well plate. Recombinant human 5′-nucleotidase (hCD73) was diluted to 1 nM in assay buffer; and an aliquot of 25 μL hCD73 (1 nM) solution was added to the corresponding wells of the plate. The contents of the well were well-mixed, and the plate was covered with sealing film, centrifuged at 1000 rpm for 30 sec., followed by incubation at room temperature for 15 min. AMP, the substrate, was diluted to 60 μM concentration in the assay buffer. To each reaction well was added 25 μL of AMP solution. After mixing well, the plate was covered with sealing film, centrifuged at 1000 rpm for 30 sec., and incubated at 37° C. for 20 min. The absorbance signal (end point) was measured on SPARK plate reader at 635 nm (See PiColorLock™ Gold Phosphate Detection System (Abcam) test kit for reference).
The reaction wells containing CD73 enzyme, substrate AMP and DMSO (no compound) were used as positive control, and the reaction wells containing substrate AMP and DMSO but no CD73 enzyme were used as negative control. The percent (%) inhibition at each concentration of compound was calculated based on and relative to the signal in the High and Low control wells contained within each assay plate. The High control wells were considered as 0% inhibition, and the low control wells, which didn't contain any compound but rather DMSO (final concentration=0.5%), as 100% inhibition. IC50 values were obtained using GraphPad Prism software.

Recombinant human 5′-nucleotidase (hCD73), sequence (P21589 27-574): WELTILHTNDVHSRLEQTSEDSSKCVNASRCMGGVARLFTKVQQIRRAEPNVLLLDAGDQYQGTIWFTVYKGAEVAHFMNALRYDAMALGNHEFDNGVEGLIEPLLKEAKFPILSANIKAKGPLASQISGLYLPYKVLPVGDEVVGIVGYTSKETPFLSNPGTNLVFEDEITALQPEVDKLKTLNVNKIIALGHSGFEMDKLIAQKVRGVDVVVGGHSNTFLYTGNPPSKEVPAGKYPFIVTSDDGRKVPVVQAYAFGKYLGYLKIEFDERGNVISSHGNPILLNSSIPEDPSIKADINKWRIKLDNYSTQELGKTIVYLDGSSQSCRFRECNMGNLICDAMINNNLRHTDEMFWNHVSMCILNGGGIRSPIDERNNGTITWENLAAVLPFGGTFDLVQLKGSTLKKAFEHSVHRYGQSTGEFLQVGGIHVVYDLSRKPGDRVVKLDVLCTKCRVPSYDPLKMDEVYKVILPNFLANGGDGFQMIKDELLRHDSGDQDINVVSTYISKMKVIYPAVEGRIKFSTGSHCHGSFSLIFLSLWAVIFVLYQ
CD73, sequence (P21589 27-574): as above

| SMILES | AUC(0-inf) [1] [ng·h/mL] | AUC(0-t) [1] [ng·h/mL] | Cmax [1] [ng/mL] | half-life [1] [h] | IC50 [2] [nM] | inhibitory activity in the CD73 enzyme assay (CD73) | IC50 (CD73; CD73 protein 0.5 μg/mL (2x), Tris-HCl pH 7.3, OD 620 nm, read-out: Potency (IC50 class), inhibitory activity in CD73 enzyme assay) [nM] |
| --- | --- | --- | --- | --- | --- | --- | --- |
| O=P(O)(O)CP(=O)(O)OC[C@H]1O[C@@H](n2cnc3c(N4C5CCC4CC(O)C5)nc(Cl)nc32)[C@@H](O)C1O (stereo partly shown) [Compound 51] | – | – | – | – | – | – | < 10 |
| C[C@H](Nc1cc(Cl)nc2c1cnn2[C@@H]1O[C@H](COP(=O)(O)CP(=O)(O)O)[C@@H](O)[C@H]1O)c1ccccc1F [Compound a, AB680, reference compound] | 24200 | 24000 | 11700 | 3.41 | – | – | – |
| O=P(O)(O)CP(=O)(O)OC[C@H]1O[C@@H](n2cnc3c(N4CCC5(CCCCC5)C4)nc(Cl)nc32)[C@@H](O)C1O (stereo partly shown) [Compound b, reference compound] | 9120 | 9110 | 15200 | 0.85 | 1.08 | – | – |
| O=P(O)(O)CP(=O)(O)OC[C@H]1O[C@@H](n2cnc3c(N4CCC5(CCCc6ccccc65)C4)nc(Cl)nc32)[C@@H](O)C1O (stereo partly drawn) [d-6] | 6680 | 6670 | 7840 | 0.841 | – | – | – |
| O=P(O)(O)CP(=O)(O)OC[C@H]1O[C@@H](n2cnc3c(N4CC5(CCCCC5)c5ccccc54)nc(Cl)nc32)[C@@H](O)C1O (stereo partly drawn) [d-7] | 197000 | 107000 | 12500 | 21.3 | 1.8 | – | – |
| O=P(O)(O)CP(=O)(O)OC[C@H]1O[C@@H](n2cnc3c(N4CCC5(CCc6ccccc65)C4)nc(Cl)nc32)[C@@H](O)C1O (stereo partly drawn) [d-8] | – | – | – | – | 0.75 | – | – |
| O=P(O)(O)CP(=O)(O)OC[C@H]1O[C@@H](n2cnc3c(N4CC5(CCCC5)c5ccccc54)nc(Cl)nc32)[C@@H](O)C1O (stereo partly drawn) [d-13] | 298000 | 108000 | 11600 | 39.5 | 1.5 | – | – |
| O=P(O)(O)CP(=O)(O)OC[C@H]1O[C@@H](n2cnc3c(N4CC5(CCCCCC5)c5ccccc54)nc(Cl)nc32)[C@@H](O)C1O (stereo partly drawn) [d-22] | 167000 | 74100 | 8030 | 28.9 | – | – | – |
| O=P(O)(O)CP(=O)(O)OC[C@H]1O[C@@H](n2cnc3c(N4CC(c5ccccc5)C(c5ccccc5)C4)nc(Cl)nc32)[C@@H](O)C1O (stereo partly drawn) [d-36] | – | – | – | – | 1.86 | – | – |

The next lines start with results.

| AUC(0-inf) [1] [ng·h/mL] | AUC(0-t) [1] [ng·h/mL] | Cmax [1] [ng/mL] | half-life [1] [h] | IC50 [2] [nM] | inhibitory activity in the CD73 enzyme assay (CD73) | SMILES | IC50 (CD73; CD73 protein 0.5 μg/mL (2x), Tris-HCl pH 7.3, OD 620 nm, read-out: Potency (IC50 class), inhibitory activity in CD73 enzyme assay) [nM] |
| --- | --- | --- | --- | --- | --- | --- | --- |
| – | – | – | – | 1.92 | – | O=P(O)(O)CP(=O)(O)OC[C@H]1O[C@@H](n2cnc3c(N4CC(c5ccccc5)c5ccccc54)nc(Cl)nc32)[C@@H](O)C1O (stereo partly drawn) [Compound d-38] | – |
| – | – | – | – | – | showed inhibitory activity | O=P(O)(O)CP(=O)(O)CC[C@H]1O[C@@H](n2cnc3c(NCc4ccccc4)nc(Cl)nc32)[C@@H](O)C1O (stereo partly shown) [a-1] | – |
| – | – | – | – | – | showed inhibitory activity | C[C@]12C[C@@H]3C[C@](C)(C1)C[C@@](Nc1nc(Cl)nc4c1ncn4[C@@H]1O[C@H](CCP(=O)(O)CP(=O)(O)O)C(O)[C@@H]1O)(C3)C2 (stereo partly shown) [a-9] | – |
| – | – | – | – | – | showed inhibitory activity | O=P(O)(O)CP(=O)(O)CC[C@H]1O[C@@H](n2cnc3c(N4CCC5(CCCCC5)C4)nc(Cl)nc32)[C@@H](O)C1O (stereo partly shown) [a-31] | – |
| 6360 | 6360 | 8850 | 0.556 | 0.47 | – | O=P(O)(O)CP(=O)(O)OC[C@H]1O[C@@H](n2cnc3c(N4CC5(CCc6ccccc65)C4)nc(Cl)nc32)[C@@H](O)C1O (stereo partly drawn) [d-1] | – |
| 22500 | 19700 | 10700 | 2.95 | 0.73 | – | O=P(O)(O)CP(=O)(O)OC[C@H]1O[C@@H](n2cnc3c(N4CC5(Cc6ccccc6C5)C4)nc(Cl)nc32)[C@@H](O)C1O (stereo partly drawn) [d-9] | – |
| 9900 | 9860 | 8560 | 0.949 | 0.4 | – | O=P(O)(O)CP(=O)(O)OC[C@H]1O[C@@H](n2cnc3c(N4CC5(CCCc6ccccc65)C4)nc(Cl)nc32)[C@@H](O)C1O (stereo partly drawn) [d-12] | – |
| 121000 | 94000 | 15600 | 12.2 | 1.29 | – | O=P(O)(O)CP(=O)(O)OC[C@H]1O[C@@H](n2cnc3c(N4CC5(CCC5)c5ccccc54)nc(Cl)nc32)[C@@H](O)C1O (stereo partly drawn) [d-20] | – |
| – | – | – | – | 1.39 | – | O=P(O)(O)CP(=O)(O)OC[C@H]1O[C@@H](n2cnc3c(N4CC(c5ccccc5)(c5ccccc5)C4)nc(Cl)nc32)[C@@H](O)C1O (stereo partly drawn) [d-35] | – |
